Data taken from ChEMBL document CHEMBL1201862, “PubChem BioAssay data set” (2004).
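Test compounds were applied to cells in 96-well plates for 48 hours at 5 doses. At the GI50, growth is halved.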 Active and inactive are the calls of the source. Cut-off read from the data, not from the text of the source: active = GI50 up to about 1.1 µM and inactive = higher.

Columns and labels:
Assay in all cases: NCI anticancer screen, dose series, 48 h
BT-549 = test system: BT-549
HCT-15 = test system: HCT-15
SK-OV-3 = test system: SK-OV-3
EKVX = test system: EKVX
OVCAR-5 = test system: OVCAR-5
UACC-257 = test system: UACC-257
NCI-H522 = test system: NCI-H522
Malme-3M = test system: Malme-3M
ACHN = test system: ACHN
HT-29 = test system: HT-29
MCF7 = test system: MCF7
UO-31 = test system: UO-31
OVCAR-8 = test system: OVCAR-8
A498 = test system: A498
U-251 = test system: U-251
MDA-MB-435 = test system: MDA-MB-435
M14 = test system: M14
NCI-H226 = test system: NCI-H226
HCT-116 = test system: HCT-116
HL-60 = test system: HL-60

Row | SMILES | GI50 (BT-549) | GI50 (HCT-15) | GI50 (SK-OV-3) | GI50 (EKVX) | GI50 (OVCAR-5) | GI50 (UACC-257) | GI50 (NCI-H522) | GI50 (Malme-3M) | GI50 (ACHN) | GI50 (HT-29) | GI50 (MCF7) | GI50 (UO-31) | GI50 (OVCAR-8) | GI50 (A498) | GI50 (U-251) | GI50 (MDA-MB-435) | GI50 (M14) | GI50 (NCI-H226) | GI50 (HCT-116) | GI50 (HL-60)
1 | Nc1ccc2nc(-c3cccc(C(F)(F)F)c3)cc(O)c2c1 | 23.6 µM (inactive) | 34.8 µM | 44.8 µM (inactive) | 44.7 µM (inactive) | 43.2 µM (inactive) | 51.2 µM (inactive) | 61.8 µM (inactive) | 40.6 µM (inactive) | 80.2 µM (inactive) | 34.1 µM (inactive) | 28.2 µM (inactive) | 37.4 µM (inactive) | 47 µM (inactive) | 29.1 µM (inactive) | 49.3 µM (inactive) | 20.3 µM (inactive) | 59.6 µM (inactive) | – | – | –
2 | O=c1[nH]nc(-c2ccccc2)n1-n1cnnc1 | > 100 µM (inactive) | > 100 µM | > 100 µM (inactive) | > 100 µM (inactive) | > 100 µM (inactive) | > 100 µM (inactive) | > 100 µM (inactive) | > 100 µM (inactive) | > 100 µM (inactive) | > 100 µM (inactive) | > 100 µM (inactive) | > 100 µM (inactive) | > 100 µM (inactive) | > 100 µM (inactive) | > 100 µM (inactive) | > 100 µM (inactive) | > 100 µM (inactive) | > 100 µM (inactive) | > 100 µM (inactive) | –
3 | COC(=O)/C=C\n1c(C)cc(=O)[nH]c1=O | > 100 µM (inactive) | > 100 µM | 67.5 µM (inactive) | > 100 µM (inactive) | > 100 µM (inactive) | > 100 µM (inactive) | > 100 µM (inactive) | > 100 µM (inactive) | > 100 µM (inactive) | > 100 µM (inactive) | 17.1 µM (inactive) | > 100 µM (inactive) | > 100 µM (inactive) | > 100 µM (inactive) | > 100 µM (inactive) | > 100 µM (inactive) | > 100 µM (inactive) | > 100 µM (inactive) | > 100 µM (inactive) | –
4 | O=C1OC(C2(O)OC(=O)c3ccccc32)c2ccccc21 (stereo unspecified) | > 100 µM (inactive) | > 100 µM | > 100 µM (inactive) | 62.4 µM (inactive) | > 100 µM (inactive) | > 100 µM (inactive) | > 100 µM (inactive) | – | > 100 µM (inactive) | > 100 µM (inactive) | > 100 µM (inactive) | > 100 µM (inactive) | > 100 µM (inactive) | > 100 µM (inactive) | > 100 µM (inactive) | > 100 µM (inactive) | > 100 µM (inactive) | > 100 µM (inactive) | > 100 µM (inactive) | > 100 µM (inactive)
5 | Cn1c2ccccc2c(=O)c2cccc(C(=O)NC(CCC(N)=O)C(=O)O)c21 (stereo unspecified) | > 100 µM (inactive) | > 100 µM | > 100 µM (inactive) | > 100 µM (inactive) | > 100 µM (inactive) | > 100 µM (inactive) | – | > 100 µM (inactive) | > 100 µM (inactive) | > 100 µM (inactive) | > 100 µM (inactive) | > 10 µM (inactive) | > 100 µM (inactive) | > 100 µM (inactive) | > 100 µM (inactive) | > 100 µM (inactive) | > 100 µM (inactive) | > 100 µM (inactive) | > 100 µM (inactive) | 0.0585 µM (active)
6 | CCN1C(Cl)=NS(=O)(=O)c2ccccc21 | 17.5 µM (inactive) | 9.86 µM | 71.6 µM (inactive) | 23.8 µM (inactive) | 26.4 µM (inactive) | 28 µM (inactive) | 4.66 µM (inactive) | – | 16.5 µM (inactive) | 18.8 µM (inactive) | 27.5 µM (inactive) | 16.9 µM (inactive) | 28.3 µM (inactive) | 22.4 µM (inactive) | 62.1 µM (inactive) | 49.7 µM (inactive) | 14.9 µM (inactive) | 21.6 µM (inactive) | 23.8 µM (inactive) | 3.87 µM (inactive)
7 | COc1cccc2c1CCc1sc(CN3CCN(C)CC3)nc1-2 | > 100 µM (inactive) | 83.6 µM | > 100 µM (inactive) | > 100 µM (inactive) | > 100 µM (inactive) | > 100 µM (inactive) | 52.2 µM (inactive) | > 100 µM (inactive) | > 100 µM (inactive) | 20.4 µM (inactive) | 26.4 µM (inactive) | > 100 µM (inactive) | > 100 µM (inactive) | 26.7 µM (inactive) | > 100 µM (inactive) | 63.5 µM (inactive) | 51.1 µM (inactive) | 59.8 µM (inactive) | 57.7 µM (inactive) | –
8 | CCCS(=O)OC1C(C2COC(C)(C)O2)OC2OC(C)(C)OC21 (stereo unspecified) | 12.1 µM (inactive) | 13.7 µM | 22 µM (inactive) | 16.4 µM (inactive) | 12.2 µM (inactive) | 13.6 µM (inactive) | 9.27 µM (inactive) | 9.59 µM (inactive) | 13.7 µM (inactive) | 3.89 µM (inactive) | 12.4 µM (inactive) | 15 µM (inactive) | 10.5 µM (inactive) | 32.1 µM (inactive) | 8.26 µM (inactive) | 6.31 µM (inactive) | 8.61 µM (inactive) | 21.7 µM (inactive) | 6.07 µM (inactive) | –
9 | N#Cc1c(N)c2c(c(-c3ccccc3)c1-c1ccccc1)C(=O)N(Nc1ccccc1)C2=O | 56.1 µM (inactive) | 45.7 µM | – | 42.4 µM (inactive) | 27 µM (inactive) | 48.6 µM (inactive) | 58.6 µM (inactive) | > 100 µM (inactive) | 59.2 µM (inactive) | – | 47.8 µM (inactive) | 24.7 µM (inactive) | 78.3 µM (inactive) | 28.4 µM (inactive) | 93.5 µM (inactive) | 68.5 µM (inactive) | 22.2 µM (inactive) | 37.3 µM (inactive) | 12.9 µM (inactive) | 22.8 µM (inactive)
10 | C[C@@H]1CCC2[C@@H](C)[C@@H](O[C@H]3O[C@@H]4O[C@@]5(C)CCC6[C@H](C)CCC([C@H]3C)[C@]64OO5)O[C@@H]3O[C@@]4(C)CCC1[C@@]23OO4 (stereo partly specified) | 1.23 µM (inactive) | 0.733 µM | > 25 µM (inactive) | 2.07 µM (inactive) | > 25 µM (inactive) | > 25 µM (inactive) | 0.861 µM (active) | – | 3.27 µM (inactive) | 1.31 µM (inactive) | 1.51 µM (inactive) | 1.71 µM (inactive) | 1.19 µM (inactive) | > 25 µM (inactive) | > 25 µM (inactive) | 6.97 µM (inactive) | > 25 µM (inactive) | > 15.6 µM (inactive) | 0.659 µM (active) | 0.5 µM (active)
11 | CSCCCNC(=O)c1csc(-c2csc(CCNC(=O)CNC(=O)OC(C)(C)C)n2)n1 | 35.4 µM (inactive) | > 100 µM | > 100 µM (inactive) | > 100 µM (inactive) | > 100 µM (inactive) | > 100 µM (inactive) | > 100 µM (inactive) | > 100 µM (inactive) | > 100 µM (inactive) | > 100 µM (inactive) | 46.6 µM (inactive) | > 100 µM (inactive) | > 100 µM (inactive) | > 100 µM (inactive) | > 100 µM (inactive) | > 100 µM (inactive) | > 100 µM (inactive) | > 100 µM (inactive) | > 100 µM (inactive) | –
